Legend:
LOX IMVI [1] = test: Growth inhibition of human LOXIMVI cells assessed as cell growth at 10 uM after 48 hrs by sulforhodamine B assay; assay type: functional; settings: read-out: Activity
OVCAR-4 [2] = test: Growth inhibition of human OVCAR4 cells assessed as cell growth at 10 uM after 48 hrs by sulforhodamine B assay; assay type: functional; settings: OVCAR-4, 48 h, read-out: Activity
Malme-3M [3] = test: Growth inhibition of human MALME-3M cells after 48 hrs by sulforhodamine B assay; assay type: functional
IGROV-1 = test: Growth inhibition of human IGROV1 cells assessed as cell growth at 10 uM after 48 hrs by sulforhodamine B assay; assay type: functional; settings: IGROV-1, 48 h, read-out: Activity
MDA-MB-435 = test: Growth inhibition of human MDA-MB-435 cells assessed as cell growth at 10 uM after 48 hrs by sulforhodamine B assay; assay type: functional; settings: MDA-MB-435, 48 h, read-out: Activity
M14 = test: Growth inhibition of human M14 cells after 48 hrs by sulforhodamine B assay; assay type: functional; settings: M14, 48 h
SF-268 = test: Growth inhibition of human SF268 cells after 48 hrs by sulforhodamine B assay; assay type: functional; settings: SF-268, 48 h
SR = test: Growth inhibition of human SR cells after 48 hrs by sulforhodamine B assay; assay type: functional
A498 = test: Growth inhibition of human A498 cells after 48 hrs by sulforhodamine B assay; assay type: functional, cell-based; settings: A498, 48 h
[4] = Growth inhibition of human NCI-ADR-RES cells assessed as cell growth at 10 uM after 48 hrs by sulforhodamine B assay; assay type: functional; settings: read-out: Activity
A549 = test: Growth inhibition of human A549/ATCC cells assessed as cell growth at 10 uM after 48 hrs by sulforhodamine B assay; assay type: functional; settings: A549, 48 h, read-out: Activity
OVCAR-4 [5] = test: Growth inhibition of human OVCAR4 cells after 48 hrs by sulforhodamine B assay; assay type: functional; settings: OVCAR-4, 48 h
HCT-15 [6] = test: Growth inhibition of human HCT15 cells assessed as cell growth at 10 uM after 48 hrs by sulforhodamine B assay; assay type: functional; settings: HCT-15, 48 h, read-out: Activity
NCI-H226 [7] = test: Growth inhibition of human NCI-H226 cells assessed as cell growth at 10 uM after 48 hrs by sulforhodamine B assay; assay type: functional; settings: NCI-H226, 48 h, read-out: Activity
HT-29 = test: Growth inhibition of human HT-29 cells assessed as cell growth at 10 uM after 48 hrs by sulforhodamine B assay; assay type: functional; settings: HT-29, 48 h, read-out: Activity
KM12 = test: Growth inhibition of human KM12 cells assessed as cell growth at 10 uM after 48 hrs by sulforhodamine B assay; assay type: functional; settings: KM12, 48 h, read-out: Activity
NCI-H322M = test: Growth inhibition of human NCI-H322M cells assessed as cell growth at 10 uM after 48 hrs by sulforhodamine B assay; assay type: functional; settings: read-out: Activity
HOP-92 [8] = test: Growth inhibition of human HOP92 cells assessed as cell growth at 10 uM after 48 hrs by sulforhodamine B assay; assay type: functional; settings: HOP-92, 48 h, read-out: Activity
COLO 205 = test: Growth inhibition of human COLO205 cells after 48 hrs by sulforhodamine B assay; assay type: functional; settings: COLO 205, 48 h
CCRF-CEM = test: Growth inhibition of human CCRF-CEM cells assessed as cell growth at 10 uM after 48 hrs by sulforhodamine B assay; assay type: functional; settings: read-out: Activity
HOP-62 = test: Growth inhibition of human HOP62 cells after 48 hrs by sulforhodamine B assay; assay type: functional; settings: HOP-62, 48 h
OVCAR-8 = test: Growth inhibition of human OVCAR8 cells after 48 hrs by sulforhodamine B assay; assay type: functional; settings: OVCAR-8, 48 h
HCT-15 [9] = test: Growth inhibition of human HCT15 cells after 48 hrs by sulforhodamine B assay; assay type: functional; settings: HCT-15, 48 h
SF-539 = test: Growth inhibition of human SF539 cells assessed as cell growth at 10 uM after 48 hrs by sulforhodamine B assay; assay type: functional; settings: SF-539, 48 h, read-out: Activity
ACHN = test: Growth inhibition of human ACHN cells after 48 hrs by sulforhodamine B assay; assay type: functional
Malme-3M [10] = test: Growth inhibition of human MALME-3M cells assessed as cell growth at 10 uM after 48 hrs by sulforhodamine B assay; assay type: functional; settings: read-out: Activity
SN12C = test: Growth inhibition of human SN12C cells after 48 hrs by sulforhodamine B assay; assay type: functional
MOLT-4 = test: Growth inhibition of human MOLT4 cells assessed as cell growth at 10 uM after 48 hrs by sulforhodamine B assay; assay type: functional; settings: MOLT-4, 48 h, read-out: Activity
MCF7 = test: Growth inhibition of human MCF7 cells assessed as cell growth at 10 uM after 48 hrs by sulforhodamine B assay; assay type: functional; settings: MCF7, 48 h, read-out: Activity
NCI-H226 [11] = test: Growth inhibition of human NCI-H226 cells after 48 hrs by sulforhodamine B assay; assay type: functional; settings: NCI-H226, 48 h
UACC-62 = test: Growth inhibition of human UACC62 cells after 48 hrs by sulforhodamine B assay; assay type: functional; settings: UACC-62, 48 h
HCT-116 = test: Growth inhibition of human HCT116 cells after 48 hrs by sulforhodamine B assay; assay type: functional; settings: HCT-116, 48 h
SNB-19 = test: Growth inhibition of human SNB19 cells after 48 hrs by sulforhodamine B assay; assay type: functional; settings: SNB-19, 48 h
HOP-92 [12] = test: Growth inhibition of human HOP92 cells after 48 hrs by sulforhodamine B assay; assay type: functional, cell-based; settings: HOP-92, 48 h
LOX IMVI [13] = test: Growth inhibition of human LOXIMVI cells after 48 hrs by sulforhodamine B assay; assay type: functional
[14] = read-out: LC50 (the source's name)

## O=C(Nc1cccc(-n2cc(-c3ccncc3)c(-c3ccc(Cl)c(O)c3)n2)c1)c1ccc(N2CCOCC2)c(C(F)(F)F)c1
LOX IMVI [1]
  growth at 10 µM: 9.98%
OVCAR-4 [2]
  growth at 10 µM: 108%
Malme-3M [3]
  GI50: 1.25 µM
  LC50 (concentration killing 50% of starting cells): > 50 µM
  TGI: 4.08 µM
IGROV-1
  growth at 10 µM: 96.8%
MDA-MB-435
  growth at 10 µM: 35.2%
M14
  GI50: 1.63 µM
  LC50 (concentration killing 50% of cells): 49.6 µM
  TGI: 9.1 µM
SF-268
  GI50: 5.58 µM
  TGI: > 50 µM
SF-268; [14]
  CC50: > 50 µM
SR
  GI50: 1.63 µM
  TGI: > 50 µM
SR; [14]
  CC50: > 50 µM
A498
  GI50: 15.5 µM
  IC50: 15.5 µM
  TGI: > 50 µM
A498; [14]
  CC50: > 50 µM
[4]
  growth at 10 µM: 43.9%
A549
  growth at 10 µM: 31.4%
OVCAR-4 [5]
  GI50: 39.2 µM
  LC50 (concentration killing 50% of cells): > 50 µM
  TGI: > 50 µM
HCT-15 [6]
  growth at 10 µM: 26.2%
NCI-H226 [7]
  growth at 10 µM: 107%
HT-29
  growth at 10 µM: 98%
KM12
  growth at 10 µM: 30.6%
NCI-H322M
  growth at 10 µM: 82.1%
HOP-92 [8]
  growth at 10 µM: 10.2%
COLO 205
  GI50: > 50 µM
  LC50 (concentration killing 50% of cells): > 50 µM
  TGI: > 50 µM
CCRF-CEM
  growth at 10 µM: 27.9%
HOP-62
  GI50: 9.38 µM
  TGI: > 50 µM
HOP-62; [14]
  CC50: > 50 µM
OVCAR-8
  GI50: 3.16 µM
  TGI: > 50 µM
OVCAR-8; [14]
  CC50: > 50 µM
HCT-15 [9]
  GI50: 1.81 µM
  LC50: > 50 µM
  TGI: 25.3 µM
SF-539
  growth at 10 µM: 41.6%
ACHN
  GI50: 1.92 µM
  TGI: > 50 µM
ACHN; [14]
  CC50: > 50 µM
Malme-3M [10]
  growth at 10 µM: 10.7%
SN12C
  GI50: 22 µM
  TGI: > 50 µM
SN12C; [14]
  CC50: > 50 µM
MOLT-4
  growth at 10 µM: 29.1%
MCF7
  growth at 10 µM: 60.6%
NCI-H226 [11]
  GI50: > 50 µM
  TGI: > 50 µM
NCI-H226 [11]; [14]
  CC50: > 50 µM
UACC-62
  GI50: 3.26 µM
  LC50 (50% lethal concentration): > 50 µM
  TGI: 18.4 µM
HCT-116
  GI50: 2.87 µM
  TGI: > 50 µM
HCT-116; [14]
  CC50: > 50 µM
SNB-19
  GI50: 4.11 µM
  LC50 (concentration killing 50% of cells): > 50 µM
  TGI: > 50 µM
HOP-92 [12]
  GI50: 0.555 µM
  IC50: 0.56 µM
  LC50: > 50 µM
  TGI: 3.81 µM
LOX IMVI [13]
  GI50: 1.64 µM
  LC50: 44.8 µM
  TGI: 7.3 µM

Reference: ChEMBL document CHEMBL2440076, “New triarylpyrazoles as broad-spectrum anticancer agents: design, synthesis, and biological evaluation” (Eur J Med Chem, 2013)
